# Data reported in patent US10018630B2, “Cancer stem cell isolation” (CHUGAI SEIYAKU KABUSHIKI KAISHA, priority 2011, dated 2018).
# Columns and labels:
# Lgr5-positive colon CSCs [1] = assay: Transition of Lgr5-positive colon CSCs to the Lgr5-negative state after drug exposure (flow cytometry, immunostaining, qPCR); assay type: cell-based, human; conditions: for Lgr5 expression by IHC (antibody 2L36): adherent condition, 24 hours with drug, then 48 hours without drug; for Lgr5 state of drug-resistant cells: three-day exposure of Lgr5-positive colon CSCs
# Protocol: Colon CSCs were incubated with mouse anti-human Lgr5 antibody (2T15E-2) and then with […] rat anti-mouse IgG antibody (Invitrogen) to stain Lgr5. The aldehyde dehydrogenase activity was measured using the AldeFluor Kit (Stemcell Technologies). Mouse cells were discriminated from human colon CSCs by staining with anti-mouse MHC class I antibody (Abcam), and PE- or APC-labeled goat […] antibody (BioLegend). Dead cells were also removed using the 7-AAD Viability Dye (Beckman Coulter).
# Total RNAs were isolated using the RNeasy Mini Kit including DNAase treatment (Qiagen). cDNAs were synthesized using the First-Strand cDNA Synthesis Kit (SABiosciences). Quantitative real-time PCR (QRT-PCR) analysis was performed with the SYBR Green/Rox qPCR (SABiosciences) using the Mx3005P Real-Time PCR System (Stratagene). The fold induction value was calculated according to the 2-ΔΔCt method. GAPDH and ACTB were used as a reference. All experiments were performed in triplicate.
# For immunofluorescent cytochemistry, cells were fixed with 4% paraformaldehyde and methanol, and incubated with a mouse anti-human E-cadherin antibody (Abcam), rabbit anti-human Snail antibody (Abcam), or rabbit anti-human β-catenin antibody (Sigma)). Then, the cells were visualized using the AlexaFluor 488-labeled goat anti-mouse IgG antibody or goat anti-rabbit IgG antibody. For immunofluorescent cytochemistry, the fixed cells and thin sections derived from paraffin blocks of xenograft tumors were incubated with a mouse anti-human Lgr5 antibody (2U2E-2) or rabbit anti-human Snail antibody (Abcam), rabbit anti-human HLA-DMA antibody (Sigma), rabbit anti-TMEM173 antibody (Abcam), rabbit anti-human ZMAT3 antibody (Abcam), or rabbit anti-human GPR110 antibody (Abcam). After incubation with the primary antibody, Lgr5 protein was detected with a goat anti-mouse antibody conjugated with polymer-HRP (DAKO) and visualized with AlexaFluor 488-labeled tyramide (Invitrogen), while Snail, HLA-DMA, and TMEM173 proteins were detected with a biotinylated goat anti-rabbit antibody (VECTOR) and visualized with AlexaFluor 568-labeled streptavidin (Invitrogen). These cells and samples were also stained with DAPI (Invitrogen). ZMAT3 and GPR110 proteins were detected with a goat anti-rabbit antibody conjugated with polymer HRP (DAKO) and visualized with diaminobenzidine. The cells and samples were stained with Mayer's hematoxylin (Muto Pure Chemicals Co.).
# In addition, the present inventors carried out examinations to assess whether Lgr5-negative colon CSCs undergo a transition into an Lgr5-positive state. […] On the other hand, when Lgr5-positive adherent colon CSCs were cultured in an ultra low adherent plate, the present inventors observed that some of the cells halted their growth and formed a spheroid-like structure and that the Lgr5 mRNA level was very low (FIGS. 12 and 33). The transition from the Lgr5-positive to Lgr5-negative state (and the reverse) was also confirmed by observations using a single cell in culture. […] When single Lgr5-negative cells prepared via irinotecan treatment were individually cultured in a multi-well plate in the absence of irinotecan, 19 to 43% of the cells underwent a transition into the Lgr5-positive state within four days (FIG. 47 and Table 5).
# Lgr5-positive cells were incubated under an adherent condition in the presence of 5-FU or oxaliplatin for 24 hours, and then cultured in the absence of the drug for 48 hours. The cells were analyzed for the expression of Lgr5 by IHC using an anti-Lgr5 antibody (antibody 2L36). […] Next, Lgr5-negative cells sorted using MoFlo XDP cell sorter and treated with 5-FU or oxaliplatin were cultured for four days in the absence of the drug. The cells were analyzed for Lgr5 expression.
# Lgr5-negative colon CSCs = assay: Cell proliferation / chemosensitivity assay (Cell Counting Kit-8); assay type: cell-based, human; conditions: for proliferation and survival of Lgr5-negative colon CSCs: 10 μg/ml, three days; for resistance of Lgr5-negative CSCs (percentage of viable cells relative to non-treated control): PLR59 and PLR123, cultured three days at each concentration (FIG. 45)
# Protocol: (§1) Tissues of xenograft were cut with a razor blade in order to prepare single cancer cell suspensions. After the suspensions were incubated at 37° C. for 3 hours in DPBS containing collagenase/dispase (Roche) and DNaseI (Roche), the suspensions were filtered through 40-μm Cell Strainers (BD Biosciences). The cells were suspended in the lysis buffer (BD Biosciences) to remove erythrocytes. The prepared xenograft-derived cells were cultured under 5% CO2 atmosphere at 37° C. in DMEM/F12 (Invitrogen) containing N-2 Supplement (Invitrogen), 20 ng/ml human EGF (Invitrogen), 10 ng/ml human basic fibroblast growth factor (Sigma), 4 μg/ml heparin (Sigma), 4 mg/ml BSA (Invitrogen), 20 μg/ml human insulin zinc solution (Invitrogen), and 2.9 mg/ml glucose (Sigma) (Todaro M, et al. (2007) Cell Stem Cell 1: 389-402). Adherent and floating CSCs were cultured using conventional polystyrene-treated cell culture flasks (BD Biosciences) and Ultra-low attachment cell culture flasks (Corning), respectively.
# (§2) Floating and adherent cells were plated at about 100 and 1×10^4 cells/well in 96-well plates, respectively. On days 0 and 3, viable cell counts were determined by the Cell Counting Kit-8 Assay (Doujindo) according to the manufacturer's protocol. Average absorbance on day 0 was taken as 100%. For chemosensitivity assay, floating and adherent cells were plated at about 100 and 1×10^4 cells/well in 96-well plates, respectively. […] After three days of culture in the presence of the agents, the Cell Counting Kit-8 was added to the cells. The average absorbance of cells exposed to DMSO or medium alone was taken as 100%. All experiments were performed in triplicate.
# Lgr5-positive colon CSCs [2] = assay: as above; assay type: cell-based, human
# Protocol: as §1, §2
# [3] = test system: tumors derived from LGR5-positive CSCs (PLR123); assay: Irinotecan treatment of NOG mice bearing tumors derived from Lgr5-positive CSCs; assay type: in vivo
# Protocol: Mice bearing tumors derived from LGR5-positive CSCs (PLR123) were treated with irinotecan, and their tumors were observed. Irinotecan or vehicle was administered to mice at days 12, 15, and 18 after tumor grafting. Scale bar represents 25 μm.
# FIG. 53 Irinotecan was administered at a dose of 120 mg/kg/day to NOG mice at days 12, 15, and 18 after grafting tumors derived from LGR5-positive CSCs (PLR123). This figure is a graph showing tumor volumes in control mice administered with vehicle (closed diamond) and mice administered with irinotecan (closed square or triangle). Each value represents mean±standard deviation.
# FIG. 54 is a graph showing the numbers of Lgr5-positive and HLA-DMA-positive cells in xenograft tumor tissues. Thin sections of tissues were treated with Lgr5 antibody and HLA-DMA antibody, and then the numbers of Lgr5-positive and HLA-DMA-positive cells were counted. Values represent the total numbers of cells counted for respective groups (n=3).
# To probe the possibility of in vivo transition to a growth inhibitor-resistant state, irinotecan was administered at the maximum tolerated dose (MTD) (120 mg/kg) into the peritoneal cavities of NOG mice bearing tumors derived from Lgr5-positive CSCs. […] By contrast, in vehicle-treated control mice, about one third of cancer cells were positive for Lgr5 in both ductal and budding areas (FIG. 52). Both Lgr5-positive cells and HLA-DMA-positive and Lgr5-negative cells were positive for EREG, and were identified to be CSCs (FIG. 52). After irinotecan treatment, Lgr5-positive cells appeared again (FIG. 52). Furthermore, xenografts were excised from mice on day 21 after transplantation of irinotecan-treated or non-treated Lgr5-positive cells. Sections from the xenografts were double-stained with an anti-Ki67 antibody and an anti-Lgr5 antibody or an anti-HLA-DMA antibody. The result of double staining for Ki67 and Lgr5 or HLA-DMA, which is a marker for Lgr5-negative cells, also confirmed a correlation between Lgr5 expression and Ki67 staining in xenografts, similarly to the observation using in vitro cultured cells. Specifically, the Lgr5-positive cells were positive for Ki67, while the Lgr5-negative/HLA-DMA-positive cells were negative for Ki67 (FIG. 65).
# [4] = 120 mg/kg into the peritoneal cavity
compound,measurement,setting,value
"O=c1[nH]cc(F)c(=O)[nH]1 [5-FU, fluorouracil]",Lgr5 expression by IHC (antibody 2L36),Lgr5-positive colon CSCs [1],most of the Lgr5-positive cells underwent transition into the Lgr5-negative state
same,Lgr5 state of drug-resistant cells,Lgr5-positive colon CSCs [1],negative for Lgr5
same,proliferation and survival of Lgr5-negative colon CSCs,Lgr5-negative colon CSCs,did not affect the proliferation and survival
same,resistance of Lgr5-negative CSCs (percentage of viable cells relative to non-treated control),Lgr5-negative colon CSCs,fully resistant
same,proliferation of Lgr5-positive colon CSCs,"Lgr5-positive colon CSCs [2]; 10 μg/ml, three days",significantly inhibited the proliferation
Cc1cc([N+](=O)[O-])ccc1NS(=O)(=O)c1cc(Cl)ccc1Cl [FH535],proliferation of Lgr5-negative colon CSCs,"Lgr5-negative colon CSCs; 50 μM, three days of culture",had no effect on the proliferation
same,proliferation of Lgr5-positive colon CSCs,"Lgr5-positive colon CSCs [2]; 50 μM, three days of culture",significantly reduced the proliferation
COc1cc(O)cc(O)c1C(=O)/C=C/c1ccccc1 [cardamonin],viable cell count,"Lgr5-negative colon CSCs; 50 μM, three days of culture, Lgr5-negative colon CSCs, relative to DMSO alone",about 50%
same,viable cell count,"Lgr5-positive colon CSCs [2]; 50 μM, three days of culture, Lgr5-positive colon CSCs, relative to DMSO alone",70%
CCc1c2c(nc3ccc(OC(=O)N4CCC(N5CCCCC5)CC4)cc13)-c1cc3c(c(=O)n1C2)COC(=O)[C@]3(O)CC [irinotecan],level of Lgr5 mRNA (quantitative real-time PCR),Lgr5-positive colon CSCs [1]; Lgr-negative cells after irinotecan treatment (FIG. 43),almost undetectable
same,fluorescence representing Lgr5 positivity,"Lgr5-positive colon CSCs [1]; PLR123, before vs after irinotecan treatment (FIG. 42)",disappeared after the treatment
same,ALDH activity,Lgr5-positive colon CSCs [1]; after irinotecan treatment,reduced
same,Lgr5 state of single Lgr5-positive cells cultured individually,"Lgr5-positive colon CSCs [1]; multi-well plate, within three days after irinotecan treatment",underwent a transition into the Lgr5-negative state
same,Lgr5 state of drug-resistant cells,Lgr5-positive colon CSCs [1],negative for Lgr5
same,tumor growth,"[3]; 120 mg/kg (MTD) into the peritoneal cavity, days 12, 15 and 18 after grafting",inhibited almost completely
same,Lgr5-positive cells in tumor,[3]; [4],dramatic decrease
same,ductal structures of tumor,[3]; [4],collapsed extensively
same,number of Lgr5-negative and HLA-DMA-positive cells in tumor,[3]; [4],increased significantly
same,proliferation and survival of Lgr5-negative colon CSCs,Lgr5-negative colon CSCs,did not affect the proliferation and survival
same,resistance of Lgr5-negative CSCs (percentage of viable cells relative to non-treated control),Lgr5-negative colon CSCs,fully resistant
same,proliferation of Lgr5-positive colon CSCs,"Lgr5-positive colon CSCs [2]; 10 μg/ml, three days",significantly inhibited the proliferation
O=C1[O][Pt]2([NH][C@@H]3CCCC[C@H]3[NH]2)[O]C1=O [oxaliplatin],Lgr5 expression by IHC (antibody 2L36),Lgr5-positive colon CSCs [1],most of the Lgr5-positive cells underwent transition into the Lgr5-negative state
